Data reported in publication PMC10098121, “Amphipathic barbiturates as marine product mimics with cytolytic and immunogenic effects on head and neck squamous cell carcinoma cell lines” (Frontiers in Pharmacology, 2023).

Test system: Bacillus subtilis 168
Experiment: Bacterial minimum inhibitory concentration (broth microdilution)
Type: cell-based
Details: Bacillus subtilis 168, 48 h, 35 °C, di-TFA salts
Procedure: (§1) Method for determination of bacterial minimum inhibitory concentration (MIC) Stock solutions of the water-soluble compounds were prepared by dissolving them in ultrapure water (Milli-Q H2O, Millipore, MA, USA). The less water-soluble compounds were first dissolved in 25 - 50 µL 100% DMSO before further dilution with ultrapure water. The DMSO concentration was always less than 1% in the working concentration of each compound. A modified broth microdilution susceptibility test based on the CLSI M07-A9 protocol, [2] was used to determine minimal inhibitory concentrations (MIC). Briefly, the test compounds were two-fold diluted with ultrapure water in polystyrene 96-well flat-bottom microplates (NUNC, Roskilde, Denmark). The bacterial inoculum was diluted to 2.5 - 3 x 10^4 cells/mL in Mueller-Hinton broth (MHB, Difco Laboratories, USA) and added to the different diluted compounds in a ratio of 1:1. Positive control (ciprofloxacin, Sigma-Aldrich, USA), negative control (bacteria + water), and media control (media + water) were included in each experiment. The microplates were incubated for 48 h at 35 °C in an EnVision microplate reader (PerkinElmer, Waltham, MA, USA). The lowest concentration of compounds that caused no bacterial growth, as determined by optical density (OD600) measurements, was defined as the MIC value. All compounds were tested in 3 technical replicates.
(§2) Supplementary Video S1. HSC-3 cells were seeded at 100% confluence and a standard scratch wound migration assay was performed. The cells were imaged every 2 hours for 24 hours. The video

Row | SMILES | MIC [µg/mL]
1 | NCCN1C(=O)N(CCN)C(=O)C(CCCc2ccccc2)(CCCc2ccccc2)C1=O [MPM-2:0] | 8
2 | CN(C)CCCN1C(=O)N(CCCN(C)C)C(=O)C(CCCc2ccccc2)(CCCc2ccccc2)C1=O [MPM-3:2] | 16
3 | CN(C)CCCCN1C(=O)N(CCCCN(C)C)C(=O)C(CCCc2ccccc2)(CCCc2ccccc2)C1=O [MPM-4:2] | 16
4 | NCCCCCCN1C(=O)N(CCCCCCN)C(=O)C(CCCc2ccccc2)(CCCc2ccccc2)C1=O [MPM-6:0] | 2

Test system: Escherichia coli ATCC 25922
Experiment: as above
Type: cell-based
Details: ATCC25922; Escherichia coli ATCC 25922, 48 h, 35 °C, di-TFA salts
Procedure: as §1, §2

Row | SMILES | MIC [µg/mL]
5 | NCCN1C(=O)N(CCN)C(=O)C(CCCc2ccccc2)(CCCc2ccccc2)C1=O [MPM-2:0] | 16
6 | CN(C)CCCN1C(=O)N(CCCN(C)C)C(=O)C(CCCc2ccccc2)(CCCc2ccccc2)C1=O [MPM-3:2] | 32
7 | CN(C)CCCCN1C(=O)N(CCCCN(C)C)C(=O)C(CCCc2ccccc2)(CCCc2ccccc2)C1=O [MPM-4:2] | 32
8 | NCCCCCCN1C(=O)N(CCCCCCN)C(=O)C(CCCc2ccccc2)(CCCc2ccccc2)C1=O [MPM-6:0] | 8

Test system: Pseudomonas aeruginosa ATCC 27853
Experiment: as above
Type: cell-based
Details: ATCC27853; Pseudomonas aeruginosa ATCC 27853, 48 h, 35 °C, di-TFA salts
Procedure: as §1, §2

Row | SMILES | MIC [µg/mL]
9 | NCCN1C(=O)N(CCN)C(=O)C(CCCc2ccccc2)(CCCc2ccccc2)C1=O [MPM-2:0] | 16
10 | CN(C)CCCN1C(=O)N(CCCN(C)C)C(=O)C(CCCc2ccccc2)(CCCc2ccccc2)C1=O [MPM-3:2] | > 64
11 | CN(C)CCCCN1C(=O)N(CCCCN(C)C)C(=O)C(CCCc2ccccc2)(CCCc2ccccc2)C1=O [MPM-4:2] | > 64
12 | NCCCCCCN1C(=O)N(CCCCCCN)C(=O)C(CCCc2ccccc2)(CCCc2ccccc2)C1=O [MPM-6:0] | 8

Test system: Staphylococcus aureus ATCC 9144
Experiment: as above
Type: cell-based
Details: ATCC9144; Staphylococcus aureus ATCC 9144, 48 h, 35 °C, di-TFA salts
Procedure: as §1, §2

Row | SMILES | MIC [µg/mL]
13 | NCCN1C(=O)N(CCN)C(=O)C(CCCc2ccccc2)(CCCc2ccccc2)C1=O [MPM-2:0] | 8
14 | CN(C)CCCN1C(=O)N(CCCN(C)C)C(=O)C(CCCc2ccccc2)(CCCc2ccccc2)C1=O [MPM-3:2] | > 64
15 | CN(C)CCCCN1C(=O)N(CCCCN(C)C)C(=O)C(CCCc2ccccc2)(CCCc2ccccc2)C1=O [MPM-4:2] | 64
16 | NCCCCCCN1C(=O)N(CCCCCCN)C(=O)C(CCCc2ccccc2)(CCCc2ccccc2)C1=O [MPM-6:0] | 4

Test system: UT-SCC-24A cells
Experiment: Flow cytometric detection of apoptosis (Annexin V/PI)
Type: cell-based, human
Details: 24 h
Procedure: HSC-3 and UT-SCC-24A cells were seeded, 300,000 cells/well, in 6-well plates and left to adhere overnight. The media was then removed and replaced by 2 ml complete DMEM/F-12 containing 5, 7.5, 10 or 20 µM of MPM-2:0, MPM-6:0, MPM-3:2 or MPM-4:2, or 50 µM cisplatin. Some cells were left untreated. The cells were then incubated for 24 h. Next, the cell supernatants were collected before the cells were trypsinized and spun down with the supernatants. For the staining, an apoptosis detection kit was used (#88-8005-74, Thermo Fisher Scientific). The cells were washed once in PBS and once in 1x binding buffer before being incubated with FITC labeled Annexin V diluted 1:25 in 1 × binding buffer for 15 min. Next the cells were washed in 1 × binding buffer before being incubated with PI diluted 1:100 in 1 × binding buffer for at least 5 min before analysis was performed on the LSR Fortessa (BD Biosciences, CA, United States). Analyses were performed in FlowJo™ v.10 (https://www.flowjo.com/).

Row | SMILES | Annexin V−/PI+ population (in words)
17 | CN(C)CCCN1C(=O)N(CCCN(C)C)C(=O)C(CCCc2ccccc2)(CCCc2ccccc2)C1=O [MPM-3:2] | induced a large population of Annexin V−/PI + UT-SCC-24A cells
18 | CN(C)CCCCN1C(=O)N(CCCCN(C)C)C(=O)C(CCCc2ccccc2)(CCCc2ccccc2)C1=O [MPM-4:2] | induced a large population of Annexin V−/PI + UT-SCC-24A cells

Same assay, conditions: 24 h, cisplatin 50 µM, MPMs 5-20 µM

Row | SMILES | apoptotic (Annexin V+/PI−) population (in words)
19 | N.N.[Cl][Pt][Cl] [Cisplatin, cisplatin, reference compound] | small, but clearly apoptotic (Annexin V+/PI−) population

Test system: seven HNSCC cell lines and one normal oral fibroblast cell line (NOF)
Experiment: High throughput drug screening, statements on the whole panel
Type: cell-based, human
Details: 72 h, DSS
Procedure: The MPMs were screened against a panel of […] different cell lines (HSC-3, UT-SCC-8, UT-SCC-24A, UT-SCC-24B, UT-SCC-42A, UT-SCC-42B and NOF) at the High Throughput Biomedicine Unit (HTB) at the Institute for Molecular Medicine Finland (FIMM). On day 1, black-walled 384-well plates were coated with 5 µl diluted myogel (0.5 mg/ml) per well using an automated reagent dispenser (MultiFlo FX, BioTek, Winooski, VT, United States). On day 2, 500 cells per well were seeded in 20 µl of complete media using the MultiFlo FX (BioTek), and the cells were left to adhere overnight. On day 3, the MPMs, cisplatin, DMSO and Benzethonium chloride were added to the cells using an automatic liquid handler (Echo 550, Labcyte Inc., San Jose, CA, United States). Cisplatin and the MPMs were added to yield five different concentrations in a ten-fold dilution series ranging from 10 to 100,000 nM. Each concentration was tested in triplicate wells. DMSO (0.1%) and benzethonium chloride (100 µM) served as negative and positive control, respectively. Three hours later, some of the plates were irradiated with 2 Gy in a gamma irradiator (OB29/4, STS, Braunschweig, Germany). All plates were taken to the irradiation room to ensure similar handling of the plates. 72 h later, the plates were cooled to room temperature before 25 µl of CellTiter-Glo 2.0 reagent (Promega, Madison, WI, USA) was added to each well using the MultiFlo FX (BioTek). Next, the plates were centrifuged for 5 min at 1,000 rpm before the luminescence signal was measured with the PHERAstar FS HT reader (BMG LABTECH GmbH, Ortenberg, Germany). The raw data was analyzed with the Breeze software (https://breeze.fmm.fi), which normalized the luminescence signal from treated cells against the signal from negative and positive control cells to calculate the percentage of inhibition and generate dose-response curves, which were then used to calculate drug sensitivity scores (DSS). The DSS is a parameter which combines the IC50, the slope of the dose-response curve, and the minimum and maximum responses into a single metric, as previously described ([Yadav et al., 2014]). Quality control was performed by calculation of the Z′-factor, which was >0.7 for all cell lines, indicating high quality of the assay ([Zhang et al., 1999]).

Row | SMILES | potency / effect on viability over the cell line panel (in words)
20 | NCCN1C(=O)N(CCN)C(=O)C(CCCc2ccccc2)(CCCc2ccccc2)C1=O [MPM-2:0] | had the highest DSS
21 | CN(C)CCCN1C(=O)N(CCCN(C)C)C(=O)C(CCCc2ccccc2)(CCCc2ccccc2)C1=O [MPM-3:2] | had the highest DSS
22 | CN(C)CCCCN1C(=O)N(CCCCN(C)C)C(=O)C(CCCc2ccccc2)(CCCc2ccccc2)C1=O [MPM-4:2] | had the highest DSS
23 | NCCCCCCN1C(=O)N(CCCCCCN)C(=O)C(CCCc2ccccc2)(CCCc2ccccc2)C1=O [MPM-6:0] | had the highest DSS
